According to PMC3299684, “Two Odorant-Binding Proteins Mediate the Behavioural Response of Aphids to the Alarm Pheromone (E)-ß-farnesene and Structural Analogues” (PLoS ONE, 2012):

Legend:
OBP7 [1] = molecular target: T1, OBP7 (Acyrthosiphon pisum, UniProt A0A8R1TDD0); assay: competitive displacement of 1-NPN fluorescence; type: binding; conditions: 50 mM Tris-HCl pH 7.4, 25°C; protein and 1-NPN 2 µM; KD calculated from IC50
T1 construct: gene 100160457; primers encode N-terminus (M)YLSEA, C-terminus EFLPL
T1 sequence (A0A8R1TDD0 31-155): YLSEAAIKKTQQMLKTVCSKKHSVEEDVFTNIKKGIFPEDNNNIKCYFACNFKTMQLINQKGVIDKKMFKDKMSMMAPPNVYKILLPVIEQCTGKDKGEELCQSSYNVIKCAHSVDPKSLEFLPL

OBP3 [2] = molecular target: T2, OBP3 (Acyrthosiphon pisum, UniProt A0A8R1XHB4); assay: competitive displacement of 1-NPN fluorescence; type: binding; conditions: 50 mM Tris-HCl pH 7.4, 25°C; protein and 1-NPN 2 µM; KD calculated from IC50
T2 construct: construct not detailed here
T2 sequence (A0A8R1XHB4 24-141 limits assumed): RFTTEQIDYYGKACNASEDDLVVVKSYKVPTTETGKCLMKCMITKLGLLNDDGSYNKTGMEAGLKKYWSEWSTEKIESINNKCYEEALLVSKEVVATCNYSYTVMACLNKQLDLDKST

OBP6 = molecular target: T3, OBP6 (Acyrthosiphon pisum, UniProt A0A8R1TDN2); assay: biochemical; parameters: competitive fluorescence binding assay, displacement of 1-NPN (2 uM) from recombinant OBP (2 uM), pH 7.4
T3 sequence (A0A8R1TDN2 1-160): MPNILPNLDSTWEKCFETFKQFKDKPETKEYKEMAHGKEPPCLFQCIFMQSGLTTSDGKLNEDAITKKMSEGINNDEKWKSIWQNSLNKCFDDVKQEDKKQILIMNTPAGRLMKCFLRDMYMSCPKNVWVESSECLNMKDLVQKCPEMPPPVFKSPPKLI
Method: The probe was excited at 337 nm and emission spectra were recorded between 380 and 450 nm. […] For determining binding constants, the intensity values corresponding to the maximum of fluorescence emission were plotted against free ligand concentrations. The curves were drawn using the Prism software, that allowed calculation of the dissociation constants and the stoichiometry of binding, assuming that the protein was 100% active. […] Supplementary file pone.0032759.s002.doc: Table S1 Binding properties of the ligands utilised in ligand binding assays and behaviour experiments. For each protein, [IC]50 reports the concentration of ligand that halves the initial fluorescence intensity (both protein and 1-NPN were used at the concentration of 2 µM). Dissociation constants are calculated as reported in the Materials and Methods section. The structures of “CAU” ligands are reported in Table 1, those of “LIG” chemicals in Figure 3. Blank cells indicate values of [IC]50 higher than 30 µM. For these compounds dissociation constants have not been calculated. (DOC) Click here for additional data file.

OBP7 [3] = molecular target: T1, OBP7; assay: biochemical; parameters: competitive fluorescence binding assay, displacement of 1-NPN (2 uM) from recombinant OBP (2 uM), pH 7.4; conditions: for IC50: read-out: [IC]50 OBP7
Method: (§1) The probe was excited at 337 nm and emission spectra were recorded between 380 and 450 nm. […] For determining binding constants, the intensity values corresponding to the maximum of fluorescence emission were plotted against free ligand concentrations. The curves were drawn using the Prism software, that allowed calculation of the dissociation constants and the stoichiometry of binding, assuming that the protein was 100% active. […] Supplementary file pone.0032759.s002.doc: Table S1 Binding properties of the ligands utilised in ligand binding assays and behaviour experiments. For each protein, [IC]50 reports the concentration of ligand that halves the initial fluorescence intensity (both protein and 1-NPN were used at the concentration of 2 µM). Dissociation constants are calculated as reported in the Materials and Methods section. The structures of “CAU” ligands are reported in Table 1, those of “LIG” chemicals in Figure 3. […] (DOC) Click here for additional data file.

OBP3 [4] = molecular target: T2, OBP3; parameters: competitive fluorescence binding assay, displacement of 1-NPN (2 uM) from recombinant OBP (2 uM), pH 7.4; conditions: binder
Method: as §1

For `C=CC(=C)CC/C=C(\C)CCC=C(C)C` [(E)-ß-farnesene], the KD (OBP7 [1]) was “including (E)-ß-farnesene and structurally similar molecules, bind only OBP3 and/or OBP7” and the KD (OBP3 [2]) was “including (E)-ß-farnesene and structurally similar molecules, bind only OBP3 and/or OBP7”.

`CC(C)CCCC(C)CCOC(=O)c1ccccc1` (centres unmarked) [LIG-4] gave a Kd (OBP6) of 13.9 µM, an IC50 (OBP6; read-out: [IC]50 OBP6) of 16.1 µM and an IC50 (OBP7 [3]) of 2.5 µM.

`CC(=O)OC/C=C(\C)CCC=C(C)C` [LIG-7] was tested, and the Kd (OBP7 [3]) was 9.3 µM and the IC50 (OBP7 [3]) was 18 µM.

`CC(C)CCOC(=O)CCCc1ccccc1` [LIG-8] showed a Kd (OBP7 [3]) of 2.8 µM, an IC50 (OBP7 [3]) of 5.5 µM and a Kd (OBP3 [4]) of 10.7 µM. The IC50 (OBP3 [4]; read-out: [IC]50 OBP3) was 14 µM.
